Ten compounds from PubChem BioAssay AID248 (DTP/NCI, 2004) can be followed below.

Inconclusive results and toxic doses are left out.

The assay concerns L1210 leukemia ip in BDF1 mice, survival T/C. The assay is described as follows: NCI In Vivo Anticancer Drug Screen. Data for tumor model L1210 Leukemia (intraperitoneal) in B6D2F1 (BDF1) mice. The note with it: endpoint: mean survival time, higher = longer survival. A digest of the protocol:
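Mice bearing the transplanted tumor received compound or vehicle. Survival of the treated group was divided by that of the vehicle-treated control group to give the ratio.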

Where [1] appears, read: dose: 100.0 mg/kg/injection, schedule: Q04DX003 (ip), vehicle: saline with Tween-80.
Where [2] appears, read: dose: 100.0 mg/kg/injection, schedule: Q04DX002 (ip), vehicle: saline.
[3] abbreviates: dose: 200.0 mg/kg/injection, schedule: Q04DX002 (ip), vehicle: saline.

In the case of `C/C=C/CC1(CCC)C(=O)NC(=O)NC1=O`, the T/C is 100 % of control (dose: 75.0 mg/kg/injection, schedule: Q01DX001 (ip), vehicle: saline); 98 % of control (dose: 150.0 mg/kg/injection, schedule: Q01DX001 (ip), vehicle: saline); 104 % of control (dose: 300.0 mg/kg/injection, schedule: Q01DX001 (ip), vehicle: saline).

`[Cl][Pt+2][Cl].[NH-]C1CCC1.[NH-]C1CCC1`: the T/C (dose: 1.0 mg/kg/injection, schedule: Q01DX001 (ip), vehicle: saline with Tween-80) was 95 % of control; the T/C (dose: 1.0 mg/kg/injection, schedule: Q01DX009 (ip), vehicle: saline with Tween-80) was 108 % of control; the T/C (dose: 2.0 mg/kg/injection, schedule: Q01DX001 (ip), vehicle: saline with Tween-80) was 98 % of control; the T/C (dose: 2.0 mg/kg/injection, schedule: Q01DX009 (ip), vehicle: saline with Tween-80) was 115 % of control; the T/C (dose: 4.0 mg/kg/injection, schedule: Q01DX001 (ip), vehicle: saline with Tween-80) is 109 % of control; the T/C (dose: 5.0 mg/kg/injection, schedule: Q04DX003 (ip), vehicle: saline) is 110 % of control. Also, the T/C was 103 % of control (dose: 6.25 mg/kg/injection, schedule: Q04DX003 (ip), vehicle: Klucel (hydroxypropylcellulose) (HPC)); 116 % of control (dose: 6.25 mg/kg/injection, schedule: Q04DX003 (ip), vehicle: saline with Tween-80); 157 % of control (dose: 8.0 mg/kg/injection, schedule: Q01DX009 (ip), vehicle: saline with Tween-80); 123 % of control (dose: 10.0 mg/kg/injection, schedule: Q04DX003 (ip), vehicle: saline); 106 % of control (dose: 12.5 mg/kg/injection, schedule: Q04DX003 (ip), vehicle: Klucel (hydroxypropylcellulose) (HPC)); 214 % of control (dose: 16.0 mg/kg/injection, schedule: Q01DX009 (ip), vehicle: saline with Tween-80). In addition, the T/C is, setting by setting: (dose: 25.0 mg/kg/injection, schedule: Q04DX003 (ip), vehicle: Klucel (hydroxypropylcellulose) (HPC)) 110 % of control; (dose: 32.0 mg/kg/injection, schedule: Q01DX001 (ip), vehicle: saline with Tween-80) 154 % of control; (dose: 32.0 mg/kg/injection, schedule: Q01DX009 (ip), vehicle: saline with Tween-80) 95 % of control; (dose: 40.0 mg/kg/injection, schedule: Q04DX003 (ip), vehicle: saline) 152 % of control; (dose: 50.0 mg/kg/injection, schedule: Q04DX003 (ip), vehicle: saline with Tween-80) 195 % of control; (dose: 64.0 mg/kg/injection, schedule: Q01DX001 (ip), vehicle: saline with Tween-80) 118 % of control. In addition, the T/C (dose: 80.0 mg/kg/injection, schedule: Q04DX003 (ip), vehicle: saline) was 110 % of control and the T/C under setting [1] is 154 % of control.

Consider `COC1OCC(Cl)C(Cl)C1O` (centres undefined), for which the T/C runs as follows: (dose: 50.0 mg/kg/injection, schedule: Q04DX002 (ip), vehicle: saline) 110 % of control; under setting [2], 100 % of control; under setting [3], 100 % of control.

As to `CC(=O)CC(=O)n1c(=O)cc(C)c2ccccc21`, the T/C (dose: 75.0 mg/kg/injection, schedule: Q04DX003 (ip), vehicle: saline with Tween-80) was 117 % of control; the T/C (dose: 150.0 mg/kg/injection, schedule: Q04DX003 (ip), vehicle: saline with Tween-80) is 98 % of control; the T/C (dose: 300.0 mg/kg/injection, schedule: Q04DX003 (ip), vehicle: saline with Tween-80) was 98 % of control.

Consider `COC(=O)c1[nH]cnc1/N=N/N(C)C`, for which the T/C is 119 % of control (dose: 6.75 mg/kg/injection, schedule: Q01DX009 (ip), vehicle: saline); 113 % of control (dose: 9.3 mg/kg/injection, schedule: Q01DX015 (ip), vehicle: saline); 124 % of control (dose: 11.25 mg/kg/injection, schedule: Q01DX Z (ip), vehicle: saline); 115 % of control (dose: 22.25 mg/kg/injection, schedule: Q04DX003 (ip), vehicle: saline); 150 % of control (dose: 27.0 mg/kg/injection, schedule: Q01DX009 (ip), vehicle: saline); 171 % of control (dose: 31.0 mg/kg/injection, schedule: Q01DX Z (ip), vehicle: saline). Further, the T/C was 120 % of control (dose: 44.5 mg/kg/injection, schedule: Q04DX003 (ip), vehicle: saline); 160 % of control (dose: 46.0 mg/kg/injection, schedule: Q01DX Z (ip), vehicle: saline); 164 % of control (dose: 54.0 mg/kg/injection, schedule: Q01DX015 (ip), vehicle: saline); 114 % of control (dose: 57.5 mg/kg/injection, schedule: Q01DX001 (ip), vehicle: saline); 121 % of control (dose: 62.0 mg/kg/injection, schedule: Q01DX Z (ip), vehicle: saline); 112 % of control (dose: 88.0 mg/kg/injection, schedule: Q01DX001 (ip), vehicle: saline). For the same compound, the T/C (dose: 88.8 mg/kg/injection, schedule: Q01DX001 (ip), vehicle: saline) is 124 % of control; the T/C (dose: 90.0 mg/kg/injection, schedule: Q01DX015 (ip), vehicle: saline) was 114 % of control; the T/C (dose: 100.0 mg/kg/injection, schedule: Q01DX001 (ip), vehicle: saline) was 124 % of control; the T/C (dose: 115.0 mg/kg/injection, schedule: Q01DX001 (ip), vehicle: saline) was 114 % of control; the T/C (dose: 133.0 mg/kg/injection, schedule: Q01DX001 (ip), vehicle: saline) was 115 % of control; the T/C (dose: 200.0 mg/kg/injection, schedule: Q01DX001 (ip), vehicle: saline) was 121 % of control. Further, where the note is “dose: 231.0 mg/kg/injection, schedule: Q01DX001 (ip), vehicle: saline”, the T/C is 123 % of control.

Regarding `O=C(Nc1cccc2ccccc12)c1ccc([N+](=O)[O-])s1`, the T/C runs as follows: (dose: 50.0 mg/kg/injection, schedule: Q01DX005 (ip), vehicle: water) 87 % of control; (dose: 100.0 mg/kg/injection, schedule: Q01DX005 (ip), vehicle: water) 89 % of control; (dose: 200.0 mg/kg/injection, schedule: Q01DX005 (ip), vehicle: water) 87 % of control; (dose: 400.0 mg/kg/injection, schedule: Q01DX005 (ip), vehicle: water) 91 % of control.

With `CN(C)Cc1cc(C(C)(C)CC(C)(C)C)cc(CN(C)C)c1O`, the T/C (dose: 100.0 mg/kg/injection, schedule: Q01DX009 (ip), vehicle: Klucel (hydroxypropylcellulose) (HPC)) is 97 % of control and the T/C (dose: 200.0 mg/kg/injection, schedule: Q01DX009 (ip), vehicle: Klucel (hydroxypropylcellulose) (HPC)) was 99 % of control.

In the case of `O=C(C1CC=CCC1)N1CCCC1` (centres undefined), the T/C runs as follows: under setting [2], 101 % of control; under setting [3], 104 % of control; (dose: 400.0 mg/kg/injection, schedule: Q04DX002 (ip), vehicle: saline) 104 % of control.

For the compound `COC(=O)[C@]1(C)CCC[C@]2(C)c3cc(C(C)=O)c(C(C)C)cc3CC[C@@H]12`, the T/C by setting is: under setting [1], 102 % of control; (dose: 200.0 mg/kg/injection, schedule: Q04DX003 (ip), vehicle: saline with Tween-80) 105 % of control; (dose: 400.0 mg/kg/injection, schedule: Q04DX003 (ip), vehicle: saline with Tween-80) 98 % of control.

For the compound `CS(=O)(=O)OCCN(CCOS(C)(=O)=O)c1ccc(N=O)c(Cl)c1`, the T/C by setting is: (dose: 0.08 mg/kg/injection, schedule: Q01DX015 (ip), vehicle: saline) 97 % of control; (dose: 0.14 mg/kg/injection, schedule: Q01DX015 (ip), vehicle: saline) 103 % of control; (dose: 0.22 mg/kg/injection, schedule: Q01DX001 (ip), vehicle: saline) 114 % of control; (dose: 0.23 mg/kg/injection, schedule: Q01DX015 (ip), vehicle: saline) 114 % of control; (dose: 0.5 mg/kg/injection, schedule: Q01DX001 (ip), vehicle: saline) 122 % of control; (dose: 1.0 mg/kg/injection, schedule: Q01DX015 (ip), vehicle: saline) 124 % of control. Further, the T/C is 97 % of control (dose: 2.0 mg/kg/injection, schedule: Q01DX015 (ip), vehicle: saline); 117 % of control (dose: 4.0 mg/kg/injection, schedule: Q01DX001 (ip), vehicle: saline); 86 % of control (dose: 4.5 mg/kg/injection, schedule: Q01DX001 (ip), vehicle: saline).
